Results on 2 compounds are retold here after patent EP4810038A1, “METHOD FOR TREATING ALK-POSITIVE OR ROS1-POSITIVE NON-SMALL CELL LUNG CANCER” (Shenzhen TargetRx Co., Ltd., priority 2023, dated 2025).

Data set [1] relates to Ba/F3 (SLC34A2-ROS1 G2032R) cell line. Put plainly: Anti-tumor effect in subcutaneous transplanted Ba/F3 (SLC34A2-ROS1 G2032R) model. The note with it: 100 mg/kg p.o. once daily; 21st day after administration. The data set is classed as in vivo, NOD-SCID mice.
Source text: Housing environment: SPF grade.
Environmental conditions of the housing room of the laboratory animals: All the laboratory animals were housed in individually ventilated cages with constant temperature and constant humidity. […] The animals were continuously provided with cobalt-60 irradiated complete pelleted mouse feed with unlimited free access. The animals drank tap water (used after being autoclaved), which was provided continuously from water bottles, allowing for free access. The cages for raising the mice were polysulfone mice cages, which were autoclaved before use, and measured 325 mm × 210 mm × 180 mm. The bedding was autoclaved corn cobs. Each cage contained 5 animals. The cage cards were marked with the IACUC approval number, experiment number, start time of the experiment, project leader, experimenters, source of the animals, group, and animal number. The laboratory animals were marked with ear tags or ear labels.
The Ba/F3 (SLC34A2-ROS1 G2032R) cells in the exponential growth phase were collected, resuspended in PBS to a suitable concentration, and then subcutaneously inoculated into nude mice for tumor formation.
Assay method: Female NOD/SCID mice were subcutaneously inoculated with 2×10^6 Ba/F3 (SLC34A2-ROS1 G2032R) cells on the right side to establish a subcutaneous tumor transplantation model. […] The mice were administered orally via gavage once daily. The efficacy was evaluated based on the relative tumor growth inhibition rate (TGI), and the safety was evaluated based on the changes in the body weight and mortality of the animals.
All the procedures, including drug administration, tumor measurement, weight measurement, etc., were performed in a biosafety cabinet or on a clean bench.
The relative tumor growth rate (T/C%) was the percentage value of the relative tumor volume between a treatment group and the control group at a certain time point, or the percentage value of the tumor weight between a treatment group and the control group. The calculation formula was: T/C% = TRTV / CRTV × 100% (TRTV: the average RTV of the treatment group; CRTV: the average RTV of the solvent control group; RTV = Vt / V0, wherein V0 is the tumor volume of the animal at the time of grouping, and Vt is the tumor volume of the animal after treatment); or T/C% = TTW / CTW × 100% (TTW: the average tumor weight at the end of the assay in the treatment group; CTW: the average tumor weight at the end of the assay in the solvent control group).
Statistical analysis: To compare the tumor volume on a given day across the different treatment groups, we first used the Bartlett's test to verify the assumption of homogeneity of variance among all the groups. When the p-value of the Bartlett's test was not less than 0.05, one-way ANOVA was used to test whether the means of all the groups were equal. If the p-value of the one-way ANOVA was less than 0.05, we would use the Tukey's HSD test for the pairwise comparisons between all the groups, or use the Dunnett's test for a pairwise comparison between each treatment group and the control group. When the p-value of the Bartlett's test was less than 0.05, the Kruskal-Wallis test was used to test whether the medians of all the groups were equal. […]
The conditions of data set [2]: 100 mg of lorlatinib, GM (%CV), cited from earlier work.

SMILES strings stand for the structures.

With `C[C@@H](Oc1cc(-c2cnn(C3CCNCC3)c2)cnc1N)c1c(Cl)ccc(F)c1Cl` [crizotinib, reference compound], the average tumor volume in data set [1] stood at 1651.66 mm^3.
As to `C[C@H]1Oc2cc(cnc2N)-c2c(nn(C)c2C#N)CN(C)C(=O)c2ccc(F)cc21` [lorlatinib], in data set [2] (Multiple administrations), the AR is 0.718(55)[11]; the AUC0-τ was 5946(46)[11] h*ng/ mL; the “Cmax, SS” value was 644.8(32)[11] ng/mL. For the same compound, in data set [2] (Single administration), the AUC(0-inf) was 9590(11)[7] h*ng/ mL, the Cmax is 907.2(24) [7] ng/mL and the T1/2 is 20.0(22)[7] hour.
